Data: patent US11110195B2, “Esculentin 1a derivatives and uses thereof” (University of Houston System, priority 2013, dated 2021)
Residues, ends and D or L forms follow the SMILES beside them.

Legend:
HaCaT cells = test: Wound healing assay, HaCaT cells; type: cell-based, human; settings: HaCaT monolayer
Procedure: The percentage of cell-covered area at each time point is reported on the y-axis. Control (Ctrl) represents cells not treated with the peptide. All data are the mean of at least three independent experiments ±SEM. […] The optimal concentration allowing gap closure was 0.25 μM.
The experimental procedure is similar to that described in Example 6 with the following two differences: (i) 40,000 cells suspended in DMEM supplemented with 4 mM glutamine and 10% FBS were seeded on each side of the ibidi culture inserts instead of 70,000 cells in KGM-2g as for corneal epithelial cells; (ii) serum-free medium was used in the wound healing assay instead of medium supplemented with 5% FBS as for corneal epithelial cells. […] Overall, the experiments indicate that Esc-1a(1-21)NH2 can stimulate wound closure in different types of mammalian cells but this is with a different kinetic or optimal concentration and thus a stereospecific mechanism involving a direct/indirect activation of different signalling transduction cascades (depending on the selected cell type) likely subtends such events.

[1] = test system: Pseudomonas aeruginosa ATCC 19660 induced keratitis; test: Neutrophil infiltration into cornea by myeloperoxidase (MPO) assay; type: in vivo, C57BL/6 mice
Source text: Corneas were harvested 1,3 and 5 days after infection and neutrophil infiltration determined by MPO assay. […] PI=post infection, Pre-trt=pretreatment with Esc-1a(1-21)NH2. *Indicates significant difference, p<0.05, among PBS control and peptide treated groups.
To determine a clinical score, neutrophil infiltration by myeloperoxidase assay (MPO assay) and viable bacterial cell counts in infected and control corneas of C57BL/6 mice with Pseudomonas aeruginosa ATCC 19660 keratitis following pre-treatment and post-infection treatment with Esc-1a(1-21)NH2 up to 5 days post-infection (PI) the following experiment was performed. In these experiments pre-treatment refers to a group of animals where treatment was initiated 24 hrs before infection then continued after infection.
An MPO assay was used to quantitate polymorphonuclear cell numbers in the cornea from both infected corneas (n=2/group/time point) of Esc-1a(1-21)NH2 treated and control (PBS) treated animals. Briefly, corneas were harvested at days 1, 3 and 5 PI. The change in absorbance at 450 nm was monitored for one hour at 15-30 minute intervals. The results were expressed as units of MPO per cornea. One unit of MPO activity is equivalent to 2*10^5 polymorphonuclear cells.
Harvested and pooled corneas (2 mice/group) in 200 μl of sterile PBS/cornea. Placed the harvested corneas on ice until further processing. Homogenized the corneas for 30-45 seconds and briefly sonicated them for 10-20 seconds.
C. Added 10 μl of 0.5% HTAB (hexadecyltrimethylammonium bromide in potassium phosphate buffer 50 mM pH 6) to 90 μl homogenate (*stored the remaining homogenate on ice to obtain recoverable P. aeruginosa counts for viability assay).
D. Sonicated samples 2×5 seconds then freeze thawed three times on liquid nitrogen.
E. Centrifuged at 14000*g at 4° C. for 20 minutes.
F. To 10 ml of phosphate buffer added 0.00167 g 0-dianisidine dihydrochloride and 1.67 μl (0.05%) H2O2. 90 μl of this was added to each well to produce the color reaction (protected the solution from light).
G. Made up standards for MPO using phosphate buffer based on the initial concentration of the MPO. Double diluted 25 μl MPO standard & carry 25 μl over since 10 μl was needed per well (run in duplicate).
H. Added 10 μl of each standard to 96 well plate and 10 μl sample supernatant (in triplicate).
I. Added 90 μl phosphate buffer containing O-d-d and H2O2 to the plate. Popped bubbles and read on spectrophotometer at 450 nm at 3 minutes, 5 minutes, 10 minutes, 15 minutes, 30 minutes, 45 minutes and 60 minutes.
The MPO units per cornea were determined and the mean from 3 independent experiments was plotted (FIG. 6).

In the case of `CC[C@H](C)[C@H](NC(=O)CN)C(=O)N[C@@H](Cc1ccccc1)C(=O)N[C@@H](CO)C(=O)N[C@@H](CCCCN)C(=O)N[C@@H](CC(C)C)C(=O)N[C@@H](C)C(=O)NCC(=O)N[C@@H](CCCCN)C(=O)N[C@@H](CCCCN)C(=O)N[C@H](C(=O)N[C@@H](CCCCN)C(=O)N[C@@H](CC(N)=O)C(=O)N[C@@H](CC(C)C)C(=O)N[C@@H](CC(C)C)C(=O)N[C@H](C(=O)N[C@@H](CO)C(=O)NCC(=O)N[C@@H](CC(C)C)C(=O)N[C@@H](CCCCN)C(=O)NCC(N)=O)[C@@H](C)CC)[C@@H](C)CC` [Esc-1a(1-21)NH2] (H-GIFSKLAGKKIKNLLISGLKG-NH2; N-terminus assumed), the “optimal concentration allowing gap closure” value (HaCaT cells) is reported as 0.25 µM, the “time to coverage of the wound-field” value (HaCaT cells; bell-shaped dose-response) is reported as 9 to 12 h and the “normalized MPO activity per cornea” value ([1]; pre-treated, day 1 PI) is reported as 1.55±0.4 MPO units. The “normalized MPO activity per cornea” value ([1]; pre-treated, day 3 PI) was 1.66±0.13 MPO units, the “normalized MPO activity per cornea” value ([1]; pre-treated, day 5 PI) was 1.55±0.28 MPO units and the “normalized MPO activity per cornea” value ([1]; treated after infection, day 1 PI) was 1.69±0.40 MPO units. The “normalized MPO activity per cornea” value ([1]; treated after infection, day 3 PI) was 1.84±0.16 MPO units and the “normalized MPO activity per cornea” value ([1]; treated after infection, day 5 PI) was 1.82±0.42 MPO units.
